The values that follow are results of earlier work, collected in patent US20100260718A1, “IRF-4 AS A TUMOR SUPPRESSOR AND USES THEREOF” (Brandels University, priority 2007, published 2010).

In data set [1] the test system is IRF-4. To be noted: patients with CML, downregulated before treatment.
Data set [2] has as its system primitive CML progenitors.

Regarding IFN-α, in data set [1], the IRF-4 expression entry was “restored”. Further, the “toxicity to the more primitive CML progenitors, relative to imatinib” value in data set [2] is “higher toxicity”.
